What was measured:
[1] = Ocular sensitization assay as susceptibility to nucleophilic attack by cysteine; type: functional
Carbonic anhydrase 2 = Carbonic anhydrase 2 (Homo sapiens, UniProt P00918)
Description: Activity against human carbonic anhydrase II

SMILES | Cysteine reaction [1] [min⁻¹] | IC50 (Carbonic anhydrase 2) [nM]
CCCCCCC(O)c1csc(S(N)(=O)=O)c1 (stereo unspecified) | < 5e-05 | 13
CCCCCC/C(=N\OC)c1csc(S(N)(=O)=O)c1 | 5e-05 | 4.7
CCCCC(O[Si](C)(C)C(C)(C)C)c1csc(S(N)(=O)=O)c1 (stereo unspecified) | – | 200
CCCCC(=O)c1csc(S(N)(=O)=O)c1 | – | 6.3
CCCC/C(=N\O)c1csc(S(N)(=O)=O)c1 | – | 15
CCCCCCC(N)c1csc(S(N)(=O)=O)c1 (stereo unspecified) | – | 160
CCCCC(N)c1csc(S(N)(=O)=O)c1 (stereo unspecified) | – | 626
NS(=O)(=O)c1cc(C(=O)c2ccccc2)cs1 | 5e-05 | 6.8
CCCCCC/C(=N\O)c1csc(S(N)(=O)=O)c1 | 5e-05 | 5.8
CC(=O)Nc1nnc(S(N)(=O)=O)s1 | 3.5e-05 | –
CC(C)CN[C@H]1CCS(=O)(=O)c2sc(S(N)(=O)=O)cc21 | < 5e-05 | –
CC(=O)c1csc(S(N)(=O)=O)c1 | – | 16
CCCCCCC(=O)c1csc(S(N)(=O)=O)c1 | 5e-05 | 5
CCCCCC/C(=N\N)c1csc(S(N)(=O)=O)c1 | 5e-05 | 2
CCCCNC(C)c1csc(S(N)(=O)=O)c1 (stereo unspecified) | – | 590

From ChEMBL document CHEMBL1127528, “Synthesis and carbonic anhydrase inhibitory activity of 4-substituted 2-thiophenesulfonamides” (J Med Chem, 1994)
